Data from patent US20250170176A1, “METHODS OF TREATMENT WITH CAR CELLS IN COMBINATION WITH S1P RECEPTOR MODULATORS” (PRIOTHERA SAS, priority 2022, published 2025).

Tests used:
[1] = test system: absolute lymphocyte counts; conditions: healthy volunteers; multiple dose applications for 28 days; cited from earlier work
[2] = test system: IFN-g, TNF-α and IL-2; assay: Kinetics of plasma cytokines (BD CBA Human Th1/Th2/Th17) in JEKO-1 bearing NCG mice given CAR T cells (Example 3); type: in vivo, mouse (NCG); conditions: 5 days after CAR-T cells; mocravimod 3 mg/kg every second day from day 6
Experimental: (§1) To determine the kinetics of cytokine secretion and to evaluate the effectiveness of mocravimod in reducing the level of circulating cytokines when administered in combination with CAR T cells, NOD CRISPR Prkdc 112r Gamma (NCG) mice were injected i.v. with 5×10^6 JEKO-1-luc-GFP tumor cells. Treatment with either mocravimod or vehicle started on day 6 after tumor cell engraftment. Mocravimod (3 mg/kg) was administered every second day. 0.75×10^6 CAR T cells were injected i.v. on day 7 after tumor cell engraftment. Mice were bled 24 h, 48 h, 72 h, 96 h and 120 h post CAR T cell injection and plasma was collected. Interferon-g (IFN-g), Tumor necrosis factor-a (TNF-α) and Interleukin-2 (IL-2) were analyzed in plasma samples using the BD CBA Human Th1/Th2/Th17 cytokine assay. CAR T cells were phenotyped and enumerated in blood.

[3] = test system: CAR-T cells; assay: Absolute numbers of CAR-T cells in blood (Example 3); type: in vivo, mouse (NCG); conditions: mocravimod with CAR-T cells
Experimental: as §1
The same protocol as example 1 has been conducted for the method of analyzing CAR-T cells in bone marrow and the same protocol as the cytokine assay has been conducted for the method of analyzing CAR-T cells in blood.

[4] = test system: CAR-T cells; assay: CAR-T cell activation markers by flow cytometry in leukemia mice (Example 1); type: in vivo, mouse (C57BL/6J); conditions: KRP203 administered from day −1
Excerpt: 6 to 8-week-old C57BL/6J male mice were obtained from Envigo. Ubi-GFP RAG1−/−OT-I TCR mice were bred and crossed in our animal facility under specific pathogen-free conditions. All experiments were approved by Institut Pasteur's Safety Committee in accordance with French and European guidelines (CETEA 2017-0038). Immortalized pro-B cells were generated by infecting bone marrow cells with a retrovirus encoding viral-Abelson kinase (v-abl). This tumor cell line was then retrovirally transduced to express a fluorescence resonance energy transfer (FRET)-based reporter for caspase 3 activity. Mice were examined every day and sacrificed in case of prostration, tousled hair, weakness or nodal tumor mass >1 cm. Cells were cultured in RPMI medium 1640-GlutaMAX™ supplemented with 10% heat-inactivated fetal bovine serum, 50 U·mL-1 penicillin, 50 μg·mL-1 streptomycin, 1 mM sodium pyruvate, 10 mM HEPES and 50 μM 2-mercaptoethanol, and maintained at 37° C. and 5% CO2. Cells were routinely tested for the absence of Mycoplasma contamination (Venor-GeM Advance mycoplasma detection kit, Minerva Biolabs). […]
For ex vivo analysis, bone marrow cells were isolated by flushing femurs and tibias from tumor-bearing mice and subsequent filtering through 70 μm cell strainers. […] Analyses were performed using a Cytoflex LX (Beckman Coulter) flow cytometer and analyzed with FlowJo v10.8.0 (BD). […]

CCc1cc(/C(C)=N/OCc2ccc(C3CCCCC3)c(C(F)(F)F)c2)ccc1CN1CC(C(=O)O)C1 [BAF312]
Recovery of absolute lymphocyte counts to 80% of normal counts reached after [1]: 7 days

NC(CO)(CO)CCc1ccc(Sc2cccc(OCc3ccccc3)c2)cc1Cl [mocravimod, 2-amino-2-[4-(3-benzyloxyphenylthio)-2-chlorophenyl]ethyl-propane-1,3-diol]
level of IFN-g in blood (plasma) [2]: around 100 μg/mL
level of IL-2 in blood (plasma) [2]: around 2 μg/mL
level of TNFa in blood (plasma) [2]: around 0 μg/mL
absolute number of CAR-T cells in blood ([3]; day 1 after CAR-T injection): around 500
absolute number of CAR-T cells in blood ([3]; day 3 after CAR-T injection): around 500
absolute number of CAR-T cells in blood ([3]; day 5 after CAR-T injection): around 100
percentage of activation of CAR-T cells in lymph nodes, increase in comparison to the control [4]: 2-3 times
